Data as given in patent US7390838B2, “Depigmenting agents” (Pfizer Inc., priority 2003, dated 2008).

melting point: 65 to 66.5 °C
SMILES: Oc1ccc(C2CCCC2)c(O)c1 [Form A, 4-cyclopentyl resorcinol]
